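Results reflect a 48-hour exposure of cells in 96-well plates to compound at five concentrations. The concentration for 50% growth inhibition is given as GI50.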 Calls of active or inactive are those of the source. No stated cut-off is given here; in the data, active = GI50 up to about 1.1 µM and inactive = higher.
Key:
Test in all cases: NCI tumour cell line growth inhibition, 48 h
BT-549 = tested on: BT-549
CAKI-1 = tested on: CAKI-1
EKVX = tested on: EKVX
HCC 2998 = tested on: HCC 2998
IGROV-1 = tested on: IGROV-1
K562 = tested on: K562
MDA-MB-231 = tested on: MDA-MB-231
NCI-H23 = tested on: NCI-H23
NCI/ADR-RES = tested on: NCI/ADR-RES
OVCAR-4 = tested on: OVCAR-4
RPMI-8226 = tested on: RPMI-8226
RXF 393 = tested on: RXF 393
SK-MEL-5 = tested on: SK-MEL-5
SW-620 = tested on: SW-620
TK-10 = tested on: TK-10
UACC-62 = tested on: UACC-62
UO-31 = tested on: UO-31
HOP-92 = tested on: HOP-92

Measured: GI50

CC(C#N)(NO)C(C)(C#N)NO (stereo not drawn)
inactive: BT-549 > 100 µM | CAKI-1 > 100 µM | EKVX > 100 µM | HCC 2998 > 100 µM | IGROV-1 > 100 µM | K562 > 100 µM | MDA-MB-231 > 100 µM | NCI-H23 > 100 µM | NCI/ADR-RES > 100 µM | OVCAR-4 > 100 µM | RPMI-8226 > 100 µM | RXF 393 > 100 µM | SK-MEL-5 > 100 µM | SW-620 > 100 µM | TK-10 > 100 µM | UACC-62 > 100 µM | UO-31 > 100 µM

Nc1ccc2nc3ccc(=O)cc-3n(-c3ccccc3)c2c1
inactive: BT-549 73.8 µM | EKVX > 100 µM | HCC 2998 > 100 µM | HOP-92 > 100 µM | IGROV-1 45.5 µM | K562 > 100 µM | MDA-MB-231 38.7 µM | NCI-H23 > 100 µM | NCI/ADR-RES > 100 µM | OVCAR-4 > 100 µM | RPMI-8226 39.5 µM | RXF 393 59.8 µM | SK-MEL-5 > 100 µM | SW-620 > 100 µM | UACC-62 > 100 µM | UO-31 78.9 µM

Cc1ncc(CO)c(CN)c1O
inactive: BT-549 > 100 µM | CAKI-1 > 100 µM | EKVX > 100 µM | HCC 2998 > 100 µM | IGROV-1 > 100 µM | K562 > 100 µM | MDA-MB-231 > 100 µM | NCI-H23 > 100 µM | NCI/ADR-RES > 100 µM | OVCAR-4 > 100 µM | RPMI-8226 > 100 µM | RXF 393 > 100 µM | SK-MEL-5 > 100 µM | SW-620 > 100 µM | TK-10 > 100 µM | UACC-62 > 100 µM | UO-31 > 100 µM

CC(=O)Nc1ccc(S(=O)(=O)Nc2nnc(S(N)(=O)=O)s2)cc1
inactive: BT-549 > 100 µM | CAKI-1 > 100 µM | EKVX > 100 µM | HCC 2998 > 100 µM | HOP-92 > 100 µM | MDA-MB-231 > 100 µM | NCI-H23 > 100 µM | NCI/ADR-RES > 100 µM | OVCAR-4 > 100 µM | RPMI-8226 > 100 µM | RXF 393 > 100 µM | SW-620 > 100 µM | TK-10 > 100 µM | UACC-62 > 100 µM | UO-31 > 100 µM

O=C1c2cccc3cccc(c23)C2NCCCN12 (stereo not drawn)
inactive: BT-549 > 100 µM | CAKI-1 89.3 µM | EKVX 35.7 µM | HCC 2998 62.5 µM | HOP-92 > 100 µM | IGROV-1 > 100 µM | K562 70.3 µM | MDA-MB-231 > 100 µM | NCI-H23 > 100 µM | NCI/ADR-RES 99.1 µM | OVCAR-4 > 100 µM | RXF 393 42.4 µM | SK-MEL-5 78.2 µM | SW-620 94 µM | TK-10 > 100 µM | UACC-62 > 100 µM | UO-31 88.5 µM

CCCCCCCCCCCCNC(C)=O
inactive: BT-549 13.7 µM | CAKI-1 17 µM | EKVX 11.4 µM | HCC 2998 17.5 µM | HOP-92 2.26 µM | MDA-MB-231 13.8 µM | NCI-H23 15.7 µM | NCI/ADR-RES 17.3 µM | RPMI-8226 13.4 µM | RXF 393 18.9 µM | SK-MEL-5 16.8 µM | SW-620 16.8 µM | TK-10 13.7 µM | UACC-62 15.6 µM | UO-31 20 µM

CC1(CF)SCc2nc3ccccc3n21 (stereo not drawn)
inactive: BT-549 > 100 µM | CAKI-1 > 100 µM | EKVX > 100 µM | HCC 2998 > 100 µM | HOP-92 > 100 µM | IGROV-1 > 100 µM | MDA-MB-231 > 100 µM | NCI-H23 > 100 µM | NCI/ADR-RES > 100 µM | RPMI-8226 > 100 µM | RXF 393 > 100 µM | SK-MEL-5 > 100 µM | SW-620 > 100 µM | TK-10 > 100 µM | UACC-62 > 100 µM | UO-31 81.1 µM

Source: ChEMBL document CHEMBL1201862, “PubChem BioAssay data set” (2004)
